Laboratory results reported in PubChem BioAssay (NCI).
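Five compound concentrations were applied to cells in 96-well plates for 48 hours; endpoints were derived by simple linear interpolation of the resulting dose-response curve. TGI is the concentration that stops growth completely.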

Experiments:
Test in all cases: DTP human tumour cell line panel, 48 h
SR leukemia = system: SR leukemia
NCI-H226 lung = system: NCI-H226 lung
RXF 393 renal = system: RXF 393 renal
HCT-116 colon = system: HCT-116 colon
SK-MEL-5 melanoma = system: SK-MEL-5 melanoma
RPMI-8226 leukemia = system: RPMI-8226 leukemia
ACHN renal = system: ACHN renal
SF-539 CNS = system: SF-539 CNS
SNB-75 CNS = system: SNB-75 CNS
SK-OV-3 ovarian = system: SK-OV-3 ovarian
LOX IMVI melanoma = system: LOX IMVI melanoma
SN12C renal = system: SN12C renal
SK-MEL-2 melanoma = system: SK-MEL-2 melanoma
UO-31 renal = system: UO-31 renal
HL-60(TB) leukemia = system: HL-60(TB) leukemia

| Compound | TGI (SR leukemia) [µM] | TGI (NCI-H226 lung) [µM] | TGI (RXF 393 renal) [µM] | TGI (HCT-116 colon) [µM] | TGI (SK-MEL-5 melanoma) [µM] | TGI (RPMI-8226 leukemia) [µM] | TGI (ACHN renal) [µM] | TGI (SF-539 CNS) [µM] | TGI (SNB-75 CNS) [µM] | TGI (SK-OV-3 ovarian) [µM] | TGI (LOX IMVI melanoma) [µM] | TGI (SN12C renal) [µM] | TGI (SK-MEL-2 melanoma) [µM] | TGI (UO-31 renal) [µM] | TGI (HL-60(TB) leukemia) [µM] |
| --- | --- | --- | --- | --- | --- | --- | --- | --- | --- | --- | --- | --- | --- | --- | --- |
| O=C(c1ccccc1)N1CCC(CC2(c3cc4ccccc4[nH]3)OCCO2)CC1 | > 100 | > 100 | > 100 | > 100 | 42.3 | 6.36 | > 100 | > 100 | > 100 | > 100 | 35.6 | > 100 | 73.6 | > 100 | – |
| CC(=O)OCC(=O)OC[C@H](OCc1ccccc1)[C@@H]1[C@H](OC(C)=O)C(=O)N1Cc1ccccc1 | > 100 | > 100 | – | > 100 | > 100 | > 100 | > 100 | – | > 100 | > 100 | > 100 | > 100 | > 100 | > 100 | – |
| CC(=O)NC(NCCN)(c1ccccc1)c1ccccc1 | > 100 | > 100 | > 100 | > 100 | > 100 | > 100 | > 100 | > 100 | > 100 | > 100 | > 100 | > 100 | – | > 100 | > 100 |
| CCOC(=O)NC(Nc1ccc(F)cc1)(C(=O)OCC)C(F)(F)F (stereo not given) | > 100 | > 100 | > 100 | > 100 | > 100 | > 100 | > 100 | > 100 | > 100 | > 100 | > 100 | > 100 | – | > 100 | > 100 |
| CSc1nc2c(c(=O)n1C)N=C(c1ccc([N+](=O)[O-])cc1)CC(c1ccccc1)N2 (stereo not given) | > 100 | > 100 | > 100 | > 100 | > 100 | > 100 | > 100 | > 100 | > 100 | > 100 | > 100 | > 100 | > 100 | > 100 | 65.9 |
| O=C1Nc2nccnc2C(=O)N2CCC[C@@H]12 | > 100 | > 100 | > 100 | > 100 | > 100 | > 100 | > 100 | > 100 | > 100 | > 100 | > 100 | > 100 | > 100 | > 100 | > 100 |
| CC(C)(Cl)C(Br)CCC(Br)(CCl)C(Cl)CBr (stereo not given) | > 10 | > 10 | > 10 | – | > 10 | > 10 | > 10 | > 10 | > 10 | > 10 | > 10 | > 10 | > 10 | > 10 | > 10 |
| CCOC(=O)c1nc2ccc(C(F)(F)F)cc2nc1NCc1ccc(OC)c(OC)c1 | > 100 | > 100 | > 100 | > 100 | > 100 | > 100 | > 100 | > 100 | > 100 | > 100 | > 100 | – | 86.1 | > 100 | > 100 |
| CCC(C)[C@@H](Nc1c(O)c2c(c(O)c1Cl)C(=O)C=CC2=O)C(=O)OC (stereo not given in full) | 4.49 | > 10 | – | 6.94 | 4.51 | 7.39 | > 10 | > 10 | > 10 | > 10 | > 10 | > 10 | > 10 | – | 5.93 |
| COc1cccc(C2c3cc4c(cc3OC(NNS(=O)(=O)c3ccc(C)cc3)C2C)OCO4)c1OC (stereo not given) | 3.29 | 13.1 | 21.6 | 4.56 | 19 | 6.86 | 9.85 | 11.9 | 60.5 | 7.83 | 5.15 | 35.3 | 7.18 | 52.8 | 3.28 |
| CC(=O)c1ccc2c(c1)CC1(C2)Cc2cc3c(c(C(=O)O)c2C1)CCC3 (stereo not given) | > 100 | > 100 | > 100 | > 100 | > 100 | > 100 | > 100 | > 100 | > 100 | > 100 | > 100 | > 100 | – | > 100 | > 100 |
| CC1=C(O)c2ccccc2C(=O)C1=O | > 100 | > 100 | > 100 | > 100 | > 65.1 | > 100 | > 100 | > 100 | > 100 | > 100 | > 100 | > 100 | > 100 | > 65.3 | > 100 |
| O=C(c1ccc(Cl)cc1)c1ccc(OCCCOc2ccc(C(=O)c3ccc(Cl)cc3)cc2Cl)c(Cl)c1 | > 100 | > 100 | > 100 | > 100 | > 100 | > 100 | > 100 | > 100 | > 100 | > 100 | > 100 | > 100 | > 100 | – | > 100 |
| CC(C)C(OC(=O)c1ccc(NCC2=CC(=O)C=CC2=O)cc1)C(C)C | 11.9 | 11.7 | 3.67 | 24.6 | 24.5 | > 28.2 | 21.2 | 4.1 | 17.2 | 42.1 | 18 | 35.8 | 27.3 | 4.74 | 3.96 |
| Nc1nc(NCCCO)cc(=O)[nH]1 | > 100 | > 100 | > 100 | > 100 | > 100 | > 100 | > 100 | – | > 100 | > 100 | > 100 | > 100 | > 100 | > 100 | > 100 |
| S=c1ncc2c([nH]1)C1c3ccccc3C2c2ccccc21 | > 100 | > 100 | > 100 | > 100 | > 100 | > 100 | > 100 | > 100 | 77.2 | – | > 100 | > 100 | > 100 | > 100 | 70.3 |

| Compound | TGI (SR leukemia) [µM] | TGI (NCI-H226 lung) [µM] | TGI (RXF 393 renal) [µM] | TGI (HCT-116 colon) [µM] | TGI (SK-MEL-5 melanoma) [µM] | TGI (RPMI-8226 leukemia) [µM] | TGI (ACHN renal) [µM] | TGI (SF-539 CNS) [µM] | TGI (SNB-75 CNS) [µM] | TGI (SK-OV-3 ovarian) [µM] | TGI (LOX IMVI melanoma) [µM] | TGI (SN12C renal) [µM] | TGI (SK-MEL-2 melanoma) [µM] | TGI (UO-31 renal) [µM] | TGI (HL-60(TB) leukemia) [µM] |
| --- | --- | --- | --- | --- | --- | --- | --- | --- | --- | --- | --- | --- | --- | --- | --- |
| COC(=O)CCNC(=O)OCc1ccccc1 | > 100 | > 100 | – | > 100 | > 100 | > 100 | > 100 | > 100 | > 100 | > 100 | > 100 | > 100 | > 100 | > 100 | > 100 |
| Cc1cc2nc3ccccc3n2c2nc(N)ccc12 | > 100 | 84.9 | > 100 | > 100 | 40.2 | 70.2 | > 100 | 51.6 | > 100 | – | > 100 | > 100 | > 100 | > 100 | > 100 |
| O=C1/C(=C/c2ccccc2[N+](=O)[O-])N=C(c2ccccc2)N1c1nc2ccccc2s1 | 34.3 | > 100 | 33.7 | 38.5 | > 100 | 61.6 | 82.1 | 81.3 | 64.6 | – | 56.8 | 64.3 | > 100 | > 100 | 57.1 |
| CCOC(=O)CC(NC(=O)c1[nH]cnc1/N=N/N(C)C)C(=O)OCC (stereo not given) | > 100 | > 100 | – | > 100 | > 100 | > 100 | > 100 | > 100 | > 100 | > 100 | > 100 | > 100 | > 100 | > 100 | > 100 |
| C=CC1CN(C(=O)OCC)N(C(=O)OCC)C1CCc1ccccc1 (stereo not given) | > 100 | > 100 | – | > 100 | > 100 | > 100 | > 100 | – | > 100 | > 100 | > 100 | > 100 | > 100 | > 100 | > 100 |
| Cn1c2c(c3ccccc31)CCN1C(=O)CCC21 (stereo not given) | > 10 | > 10 | > 10 | – | > 10 | > 10 | > 10 | > 10 | > 10 | > 10 | > 10 | > 10 | > 10 | > 10 | > 10 |
| CC1C2C=C(O)C(=O)C(C2=O)C1c1ccccc1 (stereo not given) | > 100 | > 100 | > 100 | – | > 100 | > 100 | > 100 | > 100 | > 100 | > 100 | > 100 | – | > 100 | > 100 | – |
| Cc1ccc2nc(C(C)C)c(=O)[nH]c2c1 | > 100 | > 100 | > 100 | > 100 | > 100 | > 100 | > 100 | > 100 | > 100 | > 100 | – | > 100 | 28.2 | > 100 | > 100 |
| C=C(C(=O)OC)[C@@H]1C[C@@H](OC(C)=O)C2=C[C@H](C[C@@]3(C)O[C@@H]3C3=CC(C)=C(O3)[C@H]1OC(C)=O)OC2=O | 37.6 | > 100 | 44 | 24.3 | 29.7 | 21.4 | 49.4 | 79 | > 100 | > 100 | 41.8 | 56.8 | > 100 | 36.3 | – |
| CN(C)c1c(C2OC(CO)C(O)C2O)c(=O)c1=O (stereo not given) | > 100 | > 100 | > 100 | > 100 | – | > 100 | > 100 | > 100 | > 100 | > 100 | > 100 | > 100 | > 100 | > 100 | – |
| CCOC(=O)/C=C(/C(=O)OCC)n1ccc(=O)n(Cc2cnnn2COCCOC(C)=O)c1=O | 45.7 | 57.3 | 39 | 45.8 | 38.2 | 51.2 | 22.1 | 25.7 | > 100 | > 100 | 37.3 | 47.9 | 41.9 | 29.6 | – |
| CCCCCc1c(CCCC)c(=O)[nH]c2nc(NC(=O)CCCC)ccc12 | > 100 | > 100 | > 100 | > 100 | > 100 | > 100 | > 100 | > 100 | > 100 | > 100 | > 100 | > 100 | > 100 | > 100 | – |
| O=C1O[C@H]2[C@H](OC(=O)c3cc(O)c(O)c(O)c3)[C@@H](OC(=O)c3cc(O)c(O)c4c3[C@@H]3C1=CC(=O)C(O)(O)C3(O)O4)[C@H](OC(=O)c1cc(O)c(O)c(O)c1)O[C@@H]2COC(=O)c1cc(O)c(O)c(O)c1 (stereo not given in full) | > 100 | > 100 | > 100 | > 100 | > 100 | > 100 | > 100 | – | > 100 | > 100 | > 100 | > 100 | > 100 | > 100 | > 100 |
| Cc1ccc2c(=O)cc(-c3ccc(C)s3)[nH]c2n1 | > 100 | 2.45 | – | > 100 | 3.41 | 2.57 | > 69 | 0.972 | > 100 | > 100 | > 42.9 | > 55.9 | > 100 | 1.43 | 0.607 |
| CCOC(=O)c1nc2cc(C(F)(F)F)ccc2nc1Nc1ccc(C(=O)OC)s1 | 39.6 | 87.3 | 50.8 | > 100 | > 100 | > 100 | > 100 | – | > 100 | > 100 | > 100 | – | 43.5 | > 100 | > 100 |
| Fc1ccc2c3c([nH]c2c1)CCN(Cc1ccccc1)C3 | 40.7 | 39.5 | 31 | 32.9 | 38.8 | 77.2 | 47.3 | 39 | 32.9 | 39.5 | 33.5 | 35.4 | – | 25.6 | 37.6 |
